Measured values from patent US7867990B2, “Steroid hormone products and methods for preparing them” (Ortho-McNeil Pharmaceutical, Inc., priority 2001, dated 2011).
One block for each compound: values may come before it.

Key:
[1] = Dissolution of crystalline and non-crystalline norgestimate (USP Apparatus 2, 75 rpm, 600 ml of 0.05% Tween 20); type: physicochemical; settings: 600 ml 0.05% Tween 20
Method: Employing the current dissolution standard (USP Apparatus 2, 75 rpm, 600 ml of 0.05% Tween 20), the dissolution rates and extent of dissolution for individual samples of both crystalline and non-crystalline norgestimate were compared. […]

[2] = PXRD pattern of norgestimate:lactose mixtures after milling; type: physicochemical; settings: milled 20 minutes, mill type not specified at the place
Method: Research efforts were thus made to generate the non-crystalline form of norgestimate in the presence and absence of lactose via physical and mechanical processes. Various mixtures of norgestimate and lactose were prepared. To permit qualitative or semi-quantitative analysis, the ingredients were thoroughly mixed in ratios of 1:1 and 1:9 by either dissolving them in a co-solvent mixture or by co-grinding. Qualitative assessment of the degree of crystallinity was performed employing Powder X-Ray Diffractometry (PXRD).
Mixtures of norgestimate and lactose, in amorphous and crystalline forms, were milled for 20 minutes. The amorphous state of each ingredient and of the mixture was confirmed by powder x-ray pattern diffraction (PXRD).

[3] = Physical stability (recrystallization) of amorphous materials in humidity chambers, followed by PXRD; settings: for Stability of Amorphous Norgestimate (onset of norgestimate recrystallization), 0% RH: 0% RH humidity chamber; for Stability of Amorphous Norgestimate (onset of norgestimate recrystallization), 0% RH / Stability of Amorphous Norgestimate (onset of norgestimate recrystallization), 31% RH / Stability of Amorphous Norgestimate (onset of norgestimate recrystallization), 76% RH: PXRD; for Stability of Amorphous Norgestimate (onset of norgestimate recrystallization), 31% RH: 31% RH humidity chamber; for Stability of Amorphous Norgestimate (onset of norgestimate recrystallization), 76% RH: 76% RH humidity chamber
[4] = DSC thermal analysis: glass-transition temperature (Tg) and crystallization exotherm (Tc); type: physicochemical
Method: The lactose/norgestimate mixtures made as in Example 2 were subjected to thermal analysis, according to conventional Differential Scanning Calorimetry (DSC). […] Glass-transition temperature measurements generally entail trial runs on a DSC to obtain an optimal method for observing glass-transition events. […] Some amorphous norgestimate samples produce a weak Tg event at 122-123° C., while other samples shown an exothermic event, probably because of norgestimate crystallization. All of the norgestimate samples show a similar endothermic event at 226-228° C. The thermal gravimetric analysis (TGA) of samples show rapid weight loss at that temperature, therefore, the endotherm over 220° C. primarily corresponds to decomposition. The Merck Index lists the melting temperature of the crystalline norgestimate at 214-218° C. […] This thermal event (Tc) was used to measure the stability of different simulated drug products. The temperature of Tc- should be higher if norgestimate is stabilized by lactose.

[5] = Dissolution of norgestimate from tablets manufactured by wet processing, initial and after accelerated storage; type: physicochemical; settings: for Percent Norgestimate Dissolved in 30 Minutes, 1 month 40° C./75% RH: wet-processed tablets stored unprotected; for Percent Norgestimate Dissolved in 30 Minutes, Initial: wet-processed tablets
Source text: The data in Table 4 further support the existence of a high energy form of norgestimate in the presence of lactose. […] Like the data reported in Table 2, dissolution properties are dependent on storage conditions. However it is apparent that the extent of such changes is further dependent on the mixing energetics imparted during the process.

[6] = Dissolution of norgestimate co-milled with lactose 1:9 in 100 ml 0.05% Tween 20 as a function of storage time; type: physicochemical; settings: for Norgestimate Concentration Time = 0 Days: storage 0 days; for Norgestimate Concentration Time = 44 Days: stored 44 days at 40° C./75% RH
[7] = Dissolution of norgestimate from tablets manufactured by dry processing, pilot and production scale; type: physicochemical; settings: dry-processed tablets
Method: Differences in the dissolution behavior of norgestimate from tablets manufactured by dry processing on both a pilot scale and a production scale were also evaluated. The minimum mechanical energy of 0.1 hp-min/kg can be imparted in a dry process using a geometric tumbler blender equipped for additional mixing energy with blades or choppers. A progestin such as norgestimate can be combined with lactose and additives. Increasing the length of processing time with the blades or choppers in use would impart sufficient energy to produce the forms identified in this invention. […] The important of dissolution rate as a function of mixing time is also noted.

Norgestimate concentration dissolved ([1]; dissolution time 5 min): 0.43 µg/mL
Norgestimate concentration dissolved ([1]; dissolution time 60 min): 0.81 µg/mL
Norgestimate concentration dissolved ([1]; dissolution time 140 min): 1.36 µg/mL
Compound: C#C[C@]1(OC(C)=O)CC[C@H]2[C@@H]3CCC4=CC(=NO)CC[C@@H]4[C@H]3CC[C@@]21CC [Crystalline Norgestimate, norgestimate]

Solid-state form of lactose after milling with norgestimate (PXRD) [2]: partially crystalline
Compound: OC[C@H]1O[C@@H](O[C@H]2[C@H](O)[C@@H](O)C(O)O[C@@H]2CO)[C@H](O)[C@@H](O)[C@H]1O (stereo partly shown) [lactose]

Stability of Amorphous Norgestimate (onset of norgestimate recrystallization), 0% RH [3]: < 3 days
Stability of Amorphous Norgestimate (onset of norgestimate recrystallization), 31% RH [3]: less than 1 days
Stability of Amorphous Norgestimate (onset of norgestimate recrystallization), 76% RH [3]: less than 1 days
Time to complete recrystallization of amorphous norgestimate ([3]; room temperature, 0%, 31% and 76% RH (all conditions tested)): ≤ 3 days
Tc (crystallization of norgestimate) [4]: 105 °C
Tg (glass-transition temperature) [4]: 122-123 °C
Norgestimate concentration dissolved ([1]; dissolution time 5 min): 0.44 µg/mL
Norgestimate concentration dissolved ([1]; dissolution time 60 min): 1.38 µg/mL
Norgestimate concentration dissolved ([1]; dissolution time 120 min): 1.88 µg/mL
Compound: C#C[C@]1(OC(C)=O)CC[C@H]2[C@@H]3CCC4=CC(=NO)CC[C@@H]4[C@H]3CC[C@@]21CC (mixture of isomers) [Amorphous Norgestimate, norgestimate]

Tg (glass-transition temperature) [4]: 114-115 °C
Compound: OC[C@H]1O[C@@H](O[C@H]2[C@H](O)[C@@H](O)C(O)O[C@@H]2CO)[C@H](O)[C@@H](O)[C@H]1O (stereo partly shown) [Amorphous lactose, lactose]

Stability of Amorphous Norgestimate (onset of norgestimate recrystallization), 0% RH [3]: <3 days
Stability of Amorphous Norgestimate (onset of norgestimate recrystallization), 31% RH [3]: <1 day days
Stability of Amorphous Norgestimate (onset of norgestimate recrystallization), 76% RH [3]: <1 day days
Time to recrystallization of norgestimate ([3]; in the absence of lactose, room temperature, 0% RH chamber): ≤ 3 days
Time norgestimate remained partially crystalline ([3]; norgestimate co-milled with lactose 1:9, approximately 40° C. at 75% RH): at least 44 days
Solid-state form of norgestimate after milling with lactose (PXRD) [2]: non-crystalline
Percent Norgestimate Dissolved in 30 Minutes, 1 month 40° C./75% RH ([5]; blend time 0 minutes): 36%
Percent Norgestimate Dissolved in 30 Minutes, 1 month 40° C./75% RH ([5]; blend time 2* minutes): 45%
Percent Norgestimate Dissolved in 30 Minutes, 1 month 40° C./75% RH ([5]; blend time 20 minutes): 45%
Percent Norgestimate Dissolved in 30 Minutes, 1 month 40° C./75% RH ([5]; blend time 40 minutes): 46%
Percent Norgestimate Dissolved in 30 Minutes, 1 month 40° C./75% RH ([5]; blend time 60 minutes): 85%
Percent Norgestimate Dissolved in 30 Minutes, Initial ([5]; blend time 0 minutes): 75.4%
Percent Norgestimate Dissolved in 30 Minutes, Initial ([5]; blend time 2* minutes): 91%
Percent Norgestimate Dissolved in 30 Minutes, Initial ([5]; blend time 20 minutes): 90.1%
Percent Norgestimate Dissolved in 30 Minutes, Initial ([5]; blend time 40 minutes): 92.6%
Percent Norgestimate Dissolved in 30 Minutes, Initial ([5]; blend time 60 minutes): 94.5%
Norgestimate Concentration Time = 0 Days ([6]; dissolution time 10 min): 5.3 µg/mL
Norgestimate Concentration Time = 44 Days ([6]; dissolution time 10 min): 2.4 µg/mL
Norgestimate Concentration Time = 0 Days ([6]; dissolution time 20 min): 5.1 µg/mL
Norgestimate Concentration Time = 44 Days ([6]; dissolution time 20 min): 5.2 µg/mL
Norgestimate Concentration Time = 0 Days ([6]; dissolution time 30 min): 6.2 µg/mL
Norgestimate Concentration Time = 44 Days ([6]; dissolution time 30 min): 6.5 µg/mL
Norgestimate Concentration Time = 0 Days ([6]; dissolution time 60 min): 8.7 µg/mL
Norgestimate Concentration Time = 44 Days ([6]; dissolution time 60 min): 5.9 µg/mL
Norgestimate Concentration Time = 0 Days ([6]; dissolution time 240 min): 10 µg/mL
Norgestimate Concentration Time = 44 Days ([6]; dissolution time 240 min): 6.7 µg/mL
Norgestimate Concentration Time = 0 Days ([6]; dissolution time 720 min): 10.3 µg/mL
Norgestimate Concentration Time = 44 Days ([6]; dissolution time 720 min): 7.3 µg/mL
Percent Norgestimate Dissolved in 20 Minutes ([7]; pilot scale, mixing time 5 minutes): 78.4%
Percent Norgestimate Dissolved in 20 Minutes ([7]; pilot scale, mixing time 10 minutes): 85%
Percent Norgestimate Dissolved in 20 Minutes ([7]; pilot scale, mixing time 20 minutes): 88.5%
Percent Norgestimate Dissolved in 20 Minutes ([7]; pilot scale, mixing time 30 minutes): 97.4%
Percent Norgestimate Dissolved in 20 Minutes ([7]; pilot scale, mixing time 33 minutes): 93.6%
Percent Norgestimate Dissolved in 20 Minutes ([7]; pilot scale, mixing time […]): 74.9%
Percent Norgestimate Dissolved in 20 Minutes ([7]; production scale, mixing time 4.8 minutes): 64.7%
Percent Norgestimate Dissolved in 20 Minutes ([7]; production scale, mixing time 12 minutes): 81.2%
Percent Norgestimate Dissolved in 20 Minutes ([7]; production scale, mixing time 15 minutes): 90.3%
Percent Norgestimate Dissolved in 20 Minutes ([7]; production scale, mixing time 30 minutes): 92.8%
Percent Norgestimate Dissolved in 20 Minutes ([7]; production scale, mixing time 45 minutes): 96.2%
Percent Norgestimate Dissolved in 20 Minutes ([7]; production scale, mixing time 60 minutes): 97.4%
Percent Norgestimate Dissolved in 20 Minutes ([7]; production scale, mixing time 75 minutes): 97.2%
Compound: C#C[C@]1(OC(C)=O)CC[C@H]2[C@@H]3CCC4=CC(=NO)CC[C@@H]4[C@H]3CC[C@@]21CC (mixture of isomers) [Norgestimate, norgestimate]
